Data reported in patent US20240132484A1, “BROAD SPECTRUM ANTIVIRAL COMPOUNDS TARGETING THE SKI COMPLEX” (priority 2020, published 2024).
Values joined by “and” are separate entries in the source; they are usually repeats but may differ in a detail not shown here. Equal values may be shown once. Read-outs that look alike come from different tables or passages of the source.

Experiments:
[1] = system: SARS2; type: cell-based, SARS-CoV-2; conditions: for Percentage Inhibition Average 1 μM / Screening data (Relative infection to DMSO controls) Average 1 μM: SARS2, 1 μM; for Screening data (Relative infection to DMSO controls) Average 1 μM / Screening data (Relative infection to DMSO controls) Average 5 μM / Screening data (Relative infection to DMSO controls) Average 10 μM / Screening data (Relative infection to DMSO controls) Average 25 μM / Screening data (Relative infection to DMSO controls) Average 50 μM / Average (relative infection to DMSO over the 5 tested concentrations): 100=DMSO control; for Percentage Inhibition Average 5 μM / Screening data (Relative infection to DMSO controls) Average 5 μM: SARS2, 5 μM; for Percentage Inhibition Average 10 μM / Screening data (Relative infection to DMSO controls) Average 10 μM: SARS2, 10 μM; for Percentage Inhibition Average 25 μM / Screening data (Relative infection to DMSO controls) Average 25 μM: SARS2, 25 μM; for Percentage Inhibition Average 50 μM / Screening data (Relative infection to DMSO controls) Average 50 μM: SARS2, 50 μM; for Average (relative infection to DMSO over the 5 tested concentrations): SARS2, average over 1 to 50 uM; for Infection Data, Average, Mean: average of Exp 1-3 (SMW475, SMW477, SMW478)
[2] = system: cells (nuclei count); conditions: for Relative cell count to DMSO controls, Average 1 μM / Relative cell count to DMSO controls, Average 5 μM / Relative cell count to DMSO controls, Average 10 μM / Relative cell count to DMSO controls, Average 25 μM / Relative cell count to DMSO controls, Average 50 μM: toxicity data, 100=DMSO control; for Toxicity Data, Average, Mean: average of Exp 1-3 (SMW475, SMW477, SMW478); for Relative cell count to DMSO controls, Average (for correlation analysis): average value over the 5 tested concentrations (1 to 50 uM)
[3] = Exp 1 (SMW475), 1 uM, single well
[4] = Exp 1 (SMW475), 10 uM, single well
[5] = Exp 1 (SMW475), 25 uM, single well
[6] = Exp 1 (SMW475), 50 uM, single well
[7] = Exp 2 (SMW477), 1 uM, single well
[8] = Exp 2 (SMW477), 5 uM, single well
[9] = Exp 2 (SMW477), 10 uM, single well
[10] = Exp 2 (SMW477), 25 uM, single well
[11] = Exp 2 (SMW477), 50 uM, single well
[12] = Exp 3 (SMW478), 1 uM, Greiner Celigo plates
[13] = Exp 3 (SMW478), 5 uM, Greiner Celigo plates
[14] = Exp 3 (SMW478), 10 uM, Greiner Celigo plates
[15] = Exp 3 (SMW478), 25 uM, Greiner Celigo plates

## COC(=O)c1csc(CN(CCN(C)C)Cc2ccccc2)c1 [SILCS30]
[1]
  SARS2 antiviral activity: decrease in activity
  Percentage Inhibition Average 1 μM: −0.21%
  Screening data (Relative infection to DMSO controls) Average 1 μM: 100.21
  Percentage Inhibition Average 5 μM: 15.19%
  Screening data (Relative infection to DMSO controls) Average 5 μM: 84.81
  Percentage Inhibition Average 10 μM: 1.46%
  Screening data (Relative infection to DMSO controls) Average 10 μM: 98.54
  Percentage Inhibition Average 25 μM: 32.80%
  Screening data (Relative infection to DMSO controls) Average 25 μM: 67.20
  Percentage Inhibition Average 50 μM: 75.16%
  Screening data (Relative infection to DMSO controls) Average 50 μM: 24.84
  Average (relative infection to DMSO over the 5 tested concentrations): 75.12
[1]; [3]
  Percentage Infection Relative to Appropriate DMSO Control with Avg Background Subtraction: 105.27% and 104.72% and 85.58%
[1]; [4]
  Percentage Infection Relative to Appropriate DMSO Control with Avg Background Subtraction: 111.40% and 92.91% and 108.37%
[1]; [5]
  Percentage Infection Relative to Appropriate DMSO Control with Avg Background Subtraction: 63.92% and 51.24% and 55.41%
[1]; [6]
  Percentage Infection Relative to Appropriate DMSO Control with Avg Background Subtraction: 32.13% and 25.36% and 23.71%
[1]; [7]
  Percentage Infection Relative to Appropriate DMSO Control with Avg Background Subtraction: 113.51% and 96.27% and 114.57%
[1]; [8]
  Percentage Infection Relative to Appropriate DMSO Control with Avg Background Subtraction: 117.23% and 99.87% and 114.31%
[1]; [9]
  Percentage Infection Relative to Appropriate DMSO Control with Avg Background Subtraction: 121.60% and 100.99% and 139.28%
[1]; [10]
  Percentage Infection Relative to Appropriate DMSO Control with Avg Background Subtraction: 71.18% and 69.34% and 78.15%
[1]; [11]
  Percentage Infection Relative to Appropriate DMSO Control with Avg Background Subtraction: 17.82% and 25.00% and 26.06%
[1]; [12]
  Percentage Infection Relative to Appropriate DMSO Control with Avg Background Subtraction: 81.75% and 100.71% and 99.49%
[1]; [13]
  Percentage Infection Relative to Appropriate DMSO Control with Avg Background Subtraction: 89.39% and 93.72% and 82.15%
[1]; [14]
  Percentage Infection Relative to Appropriate DMSO Control with Avg Background Subtraction: 73.78% and 69.60% and 68.94%
[1]; [15]
  Percentage Infection Relative to Appropriate DMSO Control with Avg Background Subtraction: 79.03% and 71.83% and 64.72%
[1]; n 9, 1 uM
  Infection Data, Average, Mean: 100.21%
[1]; n 9, 5 uM
  Infection Data, Average, Mean: 84.81%
[1]; n 9, 10 uM
  Infection Data, Average, Mean: 98.54%
[1]; n 9, 25 uM
  Infection Data, Average, Mean: 67.20%
[1]; n 9, 50 uM
  Infection Data, Average, Mean: 24.84%
[2]
  Relative cell count to DMSO controls, Average 1 μM: 108.24
  Relative cell count to DMSO controls, Average 5 μM: 110.62
  Relative cell count to DMSO controls, Average 10 μM: 102.59
  Relative cell count to DMSO controls, Average 25 μM: 104.38
  Relative cell count to DMSO controls, Average 50 μM: 86.57
  Relative cell count to DMSO controls, Average (for correlation analysis): 102.48
[2]; n 9, 1 uM
  Toxicity Data, Average, Mean: 108.24%
[2]; n 9, 5 uM
  Toxicity Data, Average, Mean: 110.62%
[2]; n 9, 10 uM
  Toxicity Data, Average, Mean: 102.59%
[2]; n 9, 25 uM
  Toxicity Data, Average, Mean: 104.38%
[2]; n 9, 50 uM
  Toxicity Data, Average, Mean: 86.57%

## COC(=O)c1csc(CN(CCN(C)C)Cc2ccsc2)c1 [SILCS31]
[1]
  SARS2 antiviral activity: decrease in activity
  Percentage Inhibition Average 1 μM: 2.92%
  Screening data (Relative infection to DMSO controls) Average 1 μM: 97.08
  Percentage Inhibition Average 5 μM: 5.01%
  Screening data (Relative infection to DMSO controls) Average 5 μM: 94.99
  Percentage Inhibition Average 10 μM: −2.53%
  Screening data (Relative infection to DMSO controls) Average 10 μM: 102.53
  Percentage Inhibition Average 25 μM: 25.34%
  Screening data (Relative infection to DMSO controls) Average 25 μM: 74.66
  Percentage Inhibition Average 50 μM: 77.37%
  Screening data (Relative infection to DMSO controls) Average 50 μM: 22.63
  Average (relative infection to DMSO over the 5 tested concentrations): 78.38
[1]; [3]
  Percentage Infection Relative to Appropriate DMSO Control with Avg Background Subtraction: 89.46% and 114.99% and 104.36%
[1]; Exp 1 (SMW475), 5 uM, single well
  Percentage Infection Relative to Appropriate DMSO Control with Avg Background Subtraction: 96.46% and 105.10% and 110.06%
[1]; [4]
  Percentage Infection Relative to Appropriate DMSO Control with Avg Background Subtraction: 122.44% and 140.70% and 131.42%
[1]; [5]
  Percentage Infection Relative to Appropriate DMSO Control with Avg Background Subtraction: 64.20% and 68.29% and 61.79%
[1]; [6]
  Percentage Infection Relative to Appropriate DMSO Control with Avg Background Subtraction: 27.95% and 23.70% and 21.94%
[1]; [7]
  Percentage Infection Relative to Appropriate DMSO Control with Avg Background Subtraction: 99.50% and 100.31% and 97.32%
[1]; [8]
  Percentage Infection Relative to Appropriate DMSO Control with Avg Background Subtraction: 126.44% and 106.51% and 105.32%
[1]; [9]
  Percentage Infection Relative to Appropriate DMSO Control with Avg Background Subtraction: 115.31% and 105.13% and 102.55%
[1]; [10]
  Percentage Infection Relative to Appropriate DMSO Control with Avg Background Subtraction: 73.95% and 82.92% and 76.95%
[1]; [11]
  Percentage Infection Relative to Appropriate DMSO Control with Avg Background Subtraction: 19.41% and 19.72% and 23.27%
[1]; [12]
  Percentage Infection Relative to Appropriate DMSO Control with Avg Background Subtraction: 90.68% and 87.75% and 89.34%
[1]; [13]
  Percentage Infection Relative to Appropriate DMSO Control with Avg Background Subtraction: 64.83% and 79.11% and 61.06%
[1]; [14]
  Percentage Infection Relative to Appropriate DMSO Control with Avg Background Subtraction: 63.55% and 89.71% and 51.99%
[1]; [15]
  Percentage Infection Relative to Appropriate DMSO Control with Avg Background Subtraction: 86.74% and 80.23% and 76.86%
[1]; Exp 3 (SMW478), 50 uM, Greiner Celigo plates
  Percentage Infection Relative to Appropriate DMSO Control with Avg Background Subtraction: 26.23% and 18.61% and 22.87%
[1]; n 9, 1 uM
  Infection Data, Average, Mean: 97.08%
[1]; n 9, 5 uM
  Infection Data, Average, Mean: 94.99%
[1]; n 9, 10 uM
  Infection Data, Average, Mean: 102.53%
[1]; n 9, 25 uM
  Infection Data, Average, Mean: 74.66%
[1]; n 9, 50 uM
  Infection Data, Average, Mean: 22.63%
[2]
  Relative cell count to DMSO controls, Average 1 μM: 113.44
  Relative cell count to DMSO controls, Average 5 μM: 114.77
  Relative cell count to DMSO controls, Average 10 μM: 109.5
  Relative cell count to DMSO controls, Average 25 μM: 102.57
  Relative cell count to DMSO controls, Average 50 μM: 96.45
  Relative cell count to DMSO controls, Average (for correlation analysis): 107.35
[2]; n 9, 1 uM
  Toxicity Data, Average, Mean: 113.44%
[2]; n 9, 5 uM
  Toxicity Data, Average, Mean: 114.77%
[2]; n 9, 10 uM
  Toxicity Data, Average, Mean: 109.50%
[2]; n 9, 25 uM
  Toxicity Data, Average, Mean: 102.57%
[2]; n 9, 50 uM
  Toxicity Data, Average, Mean: 96.45%
